The results in this text go back to patent US20250051376A1, “BENZIMIDAZOLE DERIVATIVE COMPOUNDS AND USE THEREOF” (PHARMGEN SCIENCE, INC., priority 2021, published 2025).

The term solubility denotes the concentration that dissolves in the medium under given conditions. Read a high solubility as much dissolved substance.

The subject of data set [1] is gastric acid secretion. Briefly: Gastric acid releasing suppression ability test by oral administration (pylorus-ligated, histamine-stimulated rats). In kind it is in vivo. The method, then: A week before the test, test animals (rats) were purchased and acclimatized. After acclimatization, food was removed the day before the test and fasting was performed for 24 hours using a fasting plate. The weight of each individual was measured, weight ranking was sequentially assigned to each group, and the average value of each group was randomly distributed so that the average value was evenly distributed. Test material (the embodiment compound and comparison compound) were used by dissolving them in 0.5% methylcellulose solution, and tegoprazan was used as a comparative compound. The prepared test material was orally administered to test animals at an amount of 3 mg/5 ml/kg, and 30 minutes later, inhalation anesthesia (3% isoflurane) was performed for 3 minutes using an inhalation anesthesia machine. After making a minimal incision in the upper abdomen about 1 cm below the left side of the sternum of an anesthetized test animal, the stomach was exposed, and the pyloric ring, which is the connection between the stomach and the duodenum, was ligated. The stomach and duodenum were restored to their original positions, and the laparotomy site was sutured well with surgical staplers. Histamine (7.5 mg/2.5 mL/head) was slowly administered subcutaneously to the back of the neck to promote gastric acid secretion. 3 hours after the surgery, the experimental animals were anesthetized with isoflurane and the stomach was removed through laparotomy. Gastric fluid obtained from the extracted stomach was transferred to a 15 ml conical tube, centrifuged at 5,000 rpm for 10 minutes, and only the supernatant was separated. 0.2 mL of the separated gastric fluid was diluted in 24.8 mL of distilled water to make a total dilution of 25 mL, and then 0.01N NaOH was added in small amounts to titrate until the pH reached 7. Efficacy was evaluated by calculating total acidity by combining the amount of gastric fluid and the amount of 0.01N NaOH required for titration.

Data set [2] can be described thus: physchem. To be noted: pH 6.8, aqueous buffer, thermodynamic from solid.
Data set [3] deals with gastric acid secretion. Kind of data set: Gastric acid releasing suppression ability test by administration in the duodenum (pylorus-ligated, histamine-stimulated rats). Format: in vivo. To be noted: for gastric acid releasing suppression ability (% INH, Mean ± SD): intraduodenal 1 mg/5 ml/kg in 0.5% methylcellulose, pylorus ligation, histamine s.c., gastric fluid collected 3 hours after surgery. The method, then:
A week before the test, test animals (rats) were purchased and acclimatized. After acclimatization, food was removed the day before the test and fasting was performed for 24 hours using a fasting plate. The weight of each individual was measured, weight ranking was sequentially assigned to each group, and the average value of each group was randomly distributed so that the average value was evenly distributed. Test material (the embodiment compound and comparison compound) were used by dissolving them in 0.5% methylcellulose solution, and tegoprazan was used as a comparative compound. Experimental animals were subjected to inhalation anesthesia (3% isoflurane) for 3 minutes using an inhalation anesthesia machine. After making a minimal incision in the upper abdomen about 1 cm below the left side of the sternum of an anesthetized test animal, the stomach was exposed, and the pyloric ring, which is the connection between the stomach and the duodenum, was ligated. The prepared drug was administered into the duodenum in an amount of 1 mg/5 ml/kg, the stomach and duodenum were restored to their original positions, and the laparotomy site was sutured well with a surgical stapler. Histamine (7.5 mg/2.5 mL/head) was slowly administered subcutaneously to the back of the neck to promote gastric acid secretion. 3 hours after the surgery, the experimental animals were anesthetized with isoflurane and the stomach was removed through laparotomy. Gastric fluid obtained from the extracted stomach was transferred to a 15 ml conical tube, centrifuged at 5,000 rpm for 10 minutes, and only the supernatant was separated. 0.2 mL of the separated gastric fluid was diluted in 24.8 mL of distilled water to make a total dilution of 25 mL, and then 0.01N NaOH was added in small amounts to titrate until the pH reached 7. Efficacy was evaluated by calculating total acidity by combining the amount of gastric fluid and the amount of 0.01N NaOH required for titration.

The mark [4] stands for this setting: rats, oral 3 mg/5 ml/kg in 0.5% methylcellulose, pylorus ligation 30 min after dosing, histamine s.c., gastric fluid collected 3 hours after surgery.

As for “sodium(S)-tert-butyl ((4-((5,7-difluorochroman-4-yl)oxy)-6-(dimethylcarbamoyl)-2-methyl-1H-benzo (d) imidazol-1-yl)methyl) phosphate) [Embodiment 5]”, the “gastric acid releasing suppression ability (% INH, Mean ± SD)” value in data set [1] (rat, in vivo) amounted to 12.7 ± 10.9 % INH.
Take `Cc1nc2c(O[C@H]3CCOc4cc(F)cc(F)c43)cc(C(=O)N(C)C)cc2n1COP(=O)(O)O` [Embodiment 4, (S)-(4-((5,7-difluorochroman-4-yl)oxy)-6-(dimethylcarbamoyl)-2-methyl-1H-benzo[d]imidazol-1-yl)methyl dihydrogen phosphate]: the “improved water solubility (pH 6.8) compared to the comparative compound” value is reported as 128 times. The “gastric acid releasing suppression ability in the gastric acid secretion animal model (in words)” value in data set [1] (rats, oral 3 mg/5 ml/kg) is given as “powerful gastric acid releasing suppression ability”. In data set [1] (setting [4]), the “gastric acid releasing suppression ability (% INH, Mean ± SD)” value came out at 100.0 ± 0.0 % INH. The solubility at 31 min in data set [2] turned out to be 2560 µg/mL.
Take `Cc1nc2c(O[C@H]3CCOc4cc(F)cc(F)c43)cc(C(=O)N(C)C)cc2n1COP(=O)(O)OC(C)(C)C` [Embodiment 3, tert-butyl ((4-(((S)-5,7-difluorochroman-4-yl)oxy)-6-(dimethylcarbamoyl)-2-methyl-1H-benzo (d)imidazol-1-yl)methyl) hydrogen phosphate]: the “improved water solubility (pH 6.8) compared to the comparative compound” value stood at 128 times. The “gastric acid releasing suppression ability (% INH, Mean ± SD)” value in data set [1] (setting [4]) is reported as 23.9 ± 3.3 % INH. In data set [2], the solubility at 31 min was 2560 µg/mL.
`Cc1nc2cc(C(=O)N(C)C)cc(O[C@H]3CCOc4cc(F)cc(F)c43)c2[nH]1` [Comparison compound, tegoprazan, reference compound]: the “gastric acid releasing suppression ability (% INH, Mean ± SD)” value in data set [3] is recorded as 29.8 ± 9.1 % INH; in data set [1] (setting [4]), 100 ± 0.0 % INH.
As for `Cc1nc2c(O[C@H]3CCOc4cc(F)cc(F)c43)cc(C(=O)N(C)C)cc2n1COP(=O)(OC(C)(C)C)OC(C)(C)C` [Embodiment 2, (S)-di-tert-butyl ((4-((5,7-difluorochroman-4-yl)oxy)-6-(dimethylcarbamoyl)-2-methyl-1H-benzo[d]imidazol-1-yl)methyl) phosphate], the “improved water solubility (pH 6.8) compared to the comparative compound” value was 256 times. The “gastric acid releasing suppression ability (% INH, Mean ± SD)” value in data set [1] (setting [4]) came to 26.8 ± 9.2 % INH. Moreover, the solubility at 31 min in data set [2] was found to be 5120 µg/mL.
Turning to “sodium(S)-(4-((5,7-difluorochroman-4-yl)oxy)-6-(dimethylcarbamoyl)-2-methyl-1H-benzo (d) imidazol-1-yl)methyl phosphate) [Embodiment 6]”, the “ability to inhibit gastric acid secretion compared to the comparative compound (in words)” value in data set [3] (drug administered to the duodenum with a neutral pH, 1 mg/5 ml/kg) is “improved ability to inhibit gastric acid secretion compared to the comparative compound”. The “gastric acid releasing suppression ability (% INH, Mean ± SD)” value in data set [3] was found to be 43.7 ± 8.7 % INH; in data set [1] (rat, in vivo) it was 92.8 ± 4.8 % INH. Also, in data set [1] (rat, in vivo, po), the “gastric acid releasing suppression ability in the gastric acid secretion animal model (in words)” value was “powerful gastric acid releasing suppression ability”.
